In general, IC50 refers to the concentration that gives 50% inhibition.

Data set [1] deals with NCI-H446. The experiment in a line: Effect on HIF1alpha mRNA expression in human NCI-H446 cells after 12 hrs by RT-PCR analysis. The data set is classed as functional, cell-based.
In data set [2] the test system is NCI-H446. The data set can be described thus: Cytotoxicity against human NCI-H446 cells assessed as proliferation rate up to 200 uM after 24 hrs by MTT assay. As to conditions: nci-h446, 24 h. The data set is classed as cell-based. Background: Tetrazolium dyes change colour on reduction, which living cells bring about.
The target in the next data set is Prolyl hydroxylase EGLN3 (Homo sapiens, UniProt Q9H6Z9). The experiment in a line: Inhibition of recombinant human PHD3 expressed in Escherichia coli using HIF19 peptide as substrate by fluorescence emission spectroscopy.
Prolyl hydroxylase EGLN3, sequence (Q9H6Z9 whole entry): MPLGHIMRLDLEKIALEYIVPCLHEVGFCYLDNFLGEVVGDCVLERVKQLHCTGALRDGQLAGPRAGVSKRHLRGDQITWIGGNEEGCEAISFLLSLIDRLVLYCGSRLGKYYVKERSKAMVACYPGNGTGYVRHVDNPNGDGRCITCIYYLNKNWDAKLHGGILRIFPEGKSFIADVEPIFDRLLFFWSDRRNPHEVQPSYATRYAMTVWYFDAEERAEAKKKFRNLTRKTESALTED
Data set [3] in a line: Cytotoxicity against human NCI-H446 cells assessed as cell survival up to 200 uM after 24 hrs by MTT assay. The data set is classed as cell-based. The settings on record: read-out: Survival.

The source made the active and inactive calls. The rule behind the calls is not given here.

On to `O=C(O)CCn1cncn1`, for which, in the data set on NCI-H446 [1], the result was inactive. Moreover, the Activity in the data set with NCI-H446 [2] is reported as above 80%.

For the compound `c1ccc2[nH]cnc2c1` [BENZIMIDAZOLE], the IC50 at Prolyl hydroxylase EGLN3 is above 100 µM.

`O=C(O)CCn1ccnc1`: the viability at 24 h in data set [3] is above 90%. In addition, the outcome with NCI-H446 [1] was inactive.

On to `c1ccc2[nH]c(CCn3nnc4ccccc43)nc2c1`, for which the viability at 24 h in data set [3] is above 90%. Also, the result with NCI-H446 [1] was inactive.

Regarding `c1ccc2[nH]c(CCn3cncn3)nc2c1`, the result in the data set on NCI-H446 [1] was inactive. For the same compound, in the data set with NCI-H446 [2], the Activity is recorded as above 80%.

Regarding `O=C(O)CCn1nnc2ccccc21`, the viability at 24 h in data set [3] was above 90%. In addition, the result in the data set on NCI-H446 [1] was inactive.

Consider `c1ccc2[nH]nnc2c1` [BENZOTRIAZOLE], for which, at Prolyl hydroxylase EGLN3, the IC50 is above 100 µM.

For `O=C(O)CCn1cnc2ccccc21`, the outcome in the data set on NCI-H446 [1] was inactive. Further, the Activity in the data set with NCI-H446 [2] was above 80%.

The values are drawn from ChEMBL document CHEMBL3132802, “Azole derivatives as novel non-iron-chelating inhibitors of prolyl hydroxylase 3 for HIF-1 activation” (Medchemcomm, 2013).
